Eleven molecules from ChEMBL document CHEMBL3137667, “[Drug-induced liver injury; fourteenth updated edition of the bibliographic database of liver injuries and related drugs]” (Gastroenterol Clin Biol, 2004) can be followed below.

Bounds are passed on as bounds.

Data set [1] in a line: Highest frequency of moderate liver toxicity observed during clinical trials, expressed as a percentage. [column '% BIOL' in source]. The note with it: human.
The nature of data set [2]: Highest frequency of acute liver toxicity observed during clinical trials, expressed as a percentage. [column '% AIGUE' in source]. The note with it: human.
Data set [3] is described as follows: Times to onset, minimal and maximal, observed in the indexed observations. [column 'DELAI' in source]. The following applies: human.
The conditions of data set [4]: human, serum.
The conditions of data set [5]: human, serum. The source holds these as a separate data set.
For data set [6] the following is noted: human.
For data set [7] the following is noted: human. The source holds these as a separate data set.
For data set [8] the following is noted: human. The source holds these as a separate data set.
For data set [9] the following is noted: human, serum, 4383 h.
The conditions of data set [10]: human. This is another data set of the same source.
For data set [11] the following is noted: human. This is another data set of the same source.
For data set [12] the following is noted: human. The source holds these as a separate data set.
The conditions of data set [13]: human. This is another data set of the same source.
The conditions of data set [14]: human. This is another data set of the same source.
The conditions of data set [15]: human. The source holds these as a separate data set.
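Throughout, for Hepatotoxicity (association with vascular disease): count of indexed literature references reporting vascular liver injury in humans, e.g. peliosis hepatitis, hepatic veno-occlusive disease or Budd-Chiari syndrome.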
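Throughout, for Hepatotoxicity (benign tumour): value is a count of indexed literature references citing a benign tumour confirmed by histopathology.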
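Throughout, for Hepatotoxicity (choleostasis): human cholestatic liver injury, shown by histopathology or by peak ALT or AST elevation over alkaline phosphatase ratio below 2, value counts indexed literature reports.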
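Throughout, for Hepatotoxicity (chronic liver disease): chronic liver injury confirmed by histopathology or persistently raised serum aminotransferase activity beyond 6 months, value given as the count of indexed literature references.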
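Throughout, for Hepatotoxicity (cirrhosis): value is a count of indexed literature references reporting cirrhosis confirmed by histopathology.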
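Throughout, for Hepatotoxicity (cytolytic): human cytolytic liver injury, shown by histopathology or by a ratio above 5 of peak ALT or AST elevation to alkaline phosphatase elevation, value counts indexed references.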
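Throughout, for Hepatotoxicity (granulomatous hepatitis): value is a count of indexed literature references reporting granulomatous liver disease confirmed by histopathology.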
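Throughout, for Hepatotoxicity (malignant tumour): malignant tumour confirmed by histopathology, value gives the count of indexed literature references reporting it.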
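Throughout, for Hepatotoxicity (severe hepatitis): human clinical data: severe hepatitis, meaning potentially life-threatening liver failure or clinically observed cases, the value counts how many indexed literature references report it.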
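Throughout, for Hepatotoxicity (steatosis): steatosis confirmed by histopathology, value is the count of indexed references.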

`CNC(=C[N+](=O)[O-])NCCSCc1csc(CN(C)C)n1` [NIZATIDINE]: the figures for the “Hepatotoxicity (moderate)” value in data set [1] and in data set [4] were 3.5% and 3, respectively. The entries for the “Hepatotoxicity (acute)” value in data set [2] and in data set [5] were 0.2% and 2, respectively. The “Hepatotoxicity (time to onset)” value in data set [3] was determined as 2 weeks. In addition, the “Hepatotoxicity (cytolytic)” value in data set [6] amounted to 2. In addition, the “Hepatotoxicity (choleostasis)” value in [7] was determined as 0. Also, the “Hepatotoxicity (severe hepatitis)” value in [8] is recorded as 1. Moreover, in data set [9], the “Hepatotoxicity (chronic liver disease)” value stood at 0. Moreover, the “Hepatotoxicity (cirrhosis)” value in data set [10] is listed as 1. The “Hepatotoxicity (granulomatous hepatitis)” value in [11] amounted to 0. The “Hepatotoxicity (association with vascular disease)” value in data set [12] came out at 0. Also, in [13], the “Hepatotoxicity (steatosis)” value was 0. Moreover, in data set [14], the “Hepatotoxicity (malignant tumour)” value came out at 0. Further, the “Hepatotoxicity (benign tumour)” value in data set [15] was found to be 0.

As to `CCOC(Nc1ccc(C(=O)O)cc1)C(=O)c1ccc(-c2ccccc2)cc1` (stereo not given) [XENAZOIC ACID], the figures for the “Hepatotoxicity (moderate)” value in data set [1] and in data set [4] were 0% and 0, respectively. In addition, the “Hepatotoxicity (acute)” value in data set [2] is on record as 0%; in data set [5], 2. The “Hepatotoxicity (time to onset)” value in [3] was found to be 1 week - 2 weeks. In addition, in data set [6], the “Hepatotoxicity (cytolytic)” value was 0. Moreover, the “Hepatotoxicity (choleostasis)” value in [7] is listed as 0. For the same molecule, in [8], the “Hepatotoxicity (severe hepatitis)” value was found to be 0. Also, the “Hepatotoxicity (chronic liver disease)” value in data set [9] came out at 0. For the same molecule, the “Hepatotoxicity (cirrhosis)” value in data set [10] was 0. The “Hepatotoxicity (granulomatous hepatitis)” value in data set [11] is on record as 0. Further, in data set [12], the “Hepatotoxicity (association with vascular disease)” value is reported as 0. Further, the “Hepatotoxicity (steatosis)” value in data set [13] is 0. Also, the “Hepatotoxicity (malignant tumour)” value in [14] is 0. Further, in data set [15], the “Hepatotoxicity (benign tumour)” value was determined as 0.

Regarding `NN` [HYDRAZINE], the “Hepatotoxicity (moderate)” value in data set [1] was 0%; in data set [4], 0. Besides, the figures for the “Hepatotoxicity (acute)” value in data set [2] and in [5] were 0% and 1, respectively. In addition, in [3], the “Hepatotoxicity (time to onset)” value worked out at 3.5 months. Moreover, in data set [6], the “Hepatotoxicity (cytolytic)” value came out at 1. In [7], the “Hepatotoxicity (choleostasis)” value turned out to be 0. In addition, the “Hepatotoxicity (severe hepatitis)” value in data set [8] was determined as 1. For the same molecule, the “Hepatotoxicity (chronic liver disease)” value in data set [9] was found to be 0. Further, the “Hepatotoxicity (cirrhosis)” value in [10] was found to be 0. Besides, in data set [11], the “Hepatotoxicity (granulomatous hepatitis)” value is on record as 0. Moreover, the “Hepatotoxicity (association with vascular disease)” value in data set [12] worked out at 0. Besides, in data set [13], the “Hepatotoxicity (steatosis)” value is on record as 0. In addition, the “Hepatotoxicity (malignant tumour)” value in [14] stood at 0. For the same molecule, the “Hepatotoxicity (benign tumour)” value in [15] amounted to 0.

For the molecule `CC(C)NCC(O)COc1ccc(CC(N)=O)cc1` (stereo not given) [ATENOLOL], the entries for the “Hepatotoxicity (moderate)” value in data set [1] and in data set [4] were 10% and 1, respectively. Also, the “Hepatotoxicity (acute)” value in data set [2] came to 0%; in data set [5] it was 2. For the same molecule, the “Hepatotoxicity (time to onset)” value in [3] worked out at 2 days - 9 months. In addition, the “Hepatotoxicity (cytolytic)” value in [6] is 1. The “Hepatotoxicity (choleostasis)” value in data set [7] was found to be 1. Further, the “Hepatotoxicity (severe hepatitis)” value in data set [8] was determined as 0. Also, the “Hepatotoxicity (chronic liver disease)” value in data set [9] is recorded as 0. For the same molecule, the “Hepatotoxicity (cirrhosis)” value in data set [10] is on record as 0. In [11], the “Hepatotoxicity (granulomatous hepatitis)” value is 0. Also, the “Hepatotoxicity (association with vascular disease)” value in data set [12] was 0. Further, in [13], the “Hepatotoxicity (steatosis)” value amounted to 1. Moreover, the “Hepatotoxicity (malignant tumour)” value in [14] was 0. Moreover, the “Hepatotoxicity (benign tumour)” value in data set [15] turned out to be 0.

In the case of `NS(=O)(=O)c1cc2c(cc1Cl)NC(C(Cl)Cl)NS2(=O)=O` (stereo not given) [TRICHLORMETHIAZIDE], the “Hepatotoxicity (moderate)” value amounted to 0% in data set [1] and 1 in [4]. Further, the “Hepatotoxicity (acute)” value in data set [2] is given as 0%; in data set [5] it was 0. Further, the “Hepatotoxicity (time to onset)” value in data set [3] was determined as 1 week. Further, the “Hepatotoxicity (cytolytic)” value in data set [6] is 0. Further, the “Hepatotoxicity (choleostasis)” value in [7] was 0. Moreover, the “Hepatotoxicity (severe hepatitis)” value in [8] was 0. Further, the “Hepatotoxicity (chronic liver disease)” value in [9] is given as 0. In addition, the “Hepatotoxicity (cirrhosis)” value in data set [10] is recorded as 0. Also, the “Hepatotoxicity (granulomatous hepatitis)” value in [11] is given as 1. In addition, in data set [12], the “Hepatotoxicity (association with vascular disease)” value stood at 0. Moreover, in [13], the “Hepatotoxicity (steatosis)” value was found to be 0. Further, the “Hepatotoxicity (malignant tumour)” value in [14] turned out to be 0. Moreover, in data set [15], the “Hepatotoxicity (benign tumour)” value was determined as 0.

With `C[C@H]1COc2c(N3CCN(C)CC3)c(F)cc3c(=O)c(C(=O)O)cn1c23.C[C@H]1COc2c(N3CCN(C)CC3)c(F)cc3c(=O)c(C(=O)O)cn1c23.O` [LEVOFLOXACIN], the “Hepatotoxicity (moderate)” value amounted to 30% in data set [1] and 17 in data set [4]. In addition, the “Hepatotoxicity (acute)” value was found to be 0% in data set [2] and 7 in data set [5]. Further, the “Hepatotoxicity (time to onset)” value in data set [3] is reported as 2 days - 3 weeks. In data set [6], the “Hepatotoxicity (cytolytic)” value is listed as 6. In addition, the “Hepatotoxicity (choleostasis)” value in data set [7] was determined as 2. In addition, the “Hepatotoxicity (severe hepatitis)” value in data set [8] turned out to be 5. Besides, the “Hepatotoxicity (chronic liver disease)” value in [9] came to 0. Also, the “Hepatotoxicity (cirrhosis)” value in data set [10] worked out at 0. For the same molecule, the “Hepatotoxicity (granulomatous hepatitis)” value in data set [11] was determined as 0. Moreover, the “Hepatotoxicity (association with vascular disease)” value in data set [12] turned out to be 0. Also, in data set [13], the “Hepatotoxicity (steatosis)” value is recorded as 0. Moreover, the “Hepatotoxicity (malignant tumour)” value in data set [14] is 0. The “Hepatotoxicity (benign tumour)” value in [15] came to 0.

`CCC(=O)[C@@]1(C)CC[C@H]2[C@@H]3CCC4=CC(=O)CCC4=C3CC[C@@]21C` [PROMEGESTONE]: the “Hepatotoxicity (moderate)” value in data set [1] is given as 0%; in [4], 0. Besides, the “Hepatotoxicity (acute)” value is on record as 0% in data set [2] and 0 in data set [5]. Moreover, the “Hepatotoxicity (time to onset)” value in data set [3] is recorded as 3 years. Moreover, in data set [6], the “Hepatotoxicity (cytolytic)” value is listed as 0. In addition, the “Hepatotoxicity (choleostasis)” value in data set [7] is listed as 0. In data set [8], the “Hepatotoxicity (severe hepatitis)” value came out at 0. Also, the “Hepatotoxicity (chronic liver disease)” value in data set [9] stood at 0. Moreover, in data set [10], the “Hepatotoxicity (cirrhosis)” value was determined as 0. Besides, the “Hepatotoxicity (granulomatous hepatitis)” value in data set [11] stood at 0. In [12], the “Hepatotoxicity (association with vascular disease)” value amounted to 0. Also, in [13], the “Hepatotoxicity (steatosis)” value was 0. In addition, in [14], the “Hepatotoxicity (malignant tumour)” value is recorded as 0. In addition, the “Hepatotoxicity (benign tumour)” value in data set [15] turned out to be 1.

On to `N[C@@H](Cc1ccc(O)c(O)c1)C(=O)O` [LEVODOPA], for which the “Hepatotoxicity (moderate)” value in [1] came to 9%; in [4] it was 1. For the same molecule, the “Hepatotoxicity (acute)” value in data set [2] is reported as 3.3%; in data set [5], 4. Also, the “Hepatotoxicity (time to onset)” value in data set [3] is less than 3 months. Moreover, the “Hepatotoxicity (cytolytic)” value in data set [6] amounted to 0. The “Hepatotoxicity (choleostasis)” value in data set [7] worked out at 1. Moreover, the “Hepatotoxicity (severe hepatitis)” value in data set [8] is 0. The “Hepatotoxicity (chronic liver disease)” value in data set [9] worked out at 0. Also, the “Hepatotoxicity (cirrhosis)” value in data set [10] was determined as 0. Further, in data set [11], the “Hepatotoxicity (granulomatous hepatitis)” value is given as 0. For the same molecule, the “Hepatotoxicity (association with vascular disease)” value in data set [12] turned out to be 0. Further, in data set [13], the “Hepatotoxicity (steatosis)” value is listed as 1. Moreover, the “Hepatotoxicity (malignant tumour)” value in [14] is recorded as 0. In addition, the “Hepatotoxicity (benign tumour)” value in data set [15] stood at 0.

As to `COc1cc2oc(=O)c(C)c(C)c2cc1OCCCN1CCN(c2ccccc2OC)CC1` [ENSACULIN], the “Hepatotoxicity (moderate)” value in [1] is given as 8.3%; in data set [4], 1. In addition, the figures for the “Hepatotoxicity (acute)” value in [2] and in [5] were 0% and 0, respectively. For the same molecule, the “Hepatotoxicity (time to onset)” value in [3] worked out at 2 weeks. Besides, in [6], the “Hepatotoxicity (cytolytic)” value turned out to be 0. The “Hepatotoxicity (choleostasis)” value in data set [7] amounted to 0. The “Hepatotoxicity (severe hepatitis)” value in [8] is recorded as 0. In data set [9], the “Hepatotoxicity (chronic liver disease)” value amounted to 0. In addition, the “Hepatotoxicity (cirrhosis)” value in data set [10] was 0. Besides, the “Hepatotoxicity (granulomatous hepatitis)” value in data set [11] is 0. Besides, the “Hepatotoxicity (association with vascular disease)” value in data set [12] came out at 0. Moreover, the “Hepatotoxicity (steatosis)” value in data set [13] came out at 0. Further, the “Hepatotoxicity (malignant tumour)” value in data set [14] is 0. Also, the “Hepatotoxicity (benign tumour)” value in [15] is 0.

Consider `O=C(CCBr)N1CCN(C(=O)CCBr)CC1` [PIPOBROMAN], for which the “Hepatotoxicity (moderate)” value in data set [1] came out at 0%; in data set [4], 0. The “Hepatotoxicity (acute)” value worked out at 0% in [2] and 1 in [5]. For the same molecule, the “Hepatotoxicity (time to onset)” value in [3] turned out to be 2 months. Moreover, the “Hepatotoxicity (cytolytic)” value in [6] was found to be 1. In data set [7], the “Hepatotoxicity (choleostasis)” value is listed as 0. Besides, in data set [8], the “Hepatotoxicity (severe hepatitis)” value came out at 0. The “Hepatotoxicity (chronic liver disease)” value in data set [9] amounted to 0. Further, the “Hepatotoxicity (cirrhosis)” value in data set [10] turned out to be 0. Also, in [11], the “Hepatotoxicity (granulomatous hepatitis)” value was found to be 0. In data set [12], the “Hepatotoxicity (association with vascular disease)” value was 0. In addition, the “Hepatotoxicity (steatosis)” value in data set [13] was found to be 0. Besides, the “Hepatotoxicity (malignant tumour)” value in data set [14] came out at 0. The “Hepatotoxicity (benign tumour)” value in [15] is on record as 0.

Take UROKINASE: the “Hepatotoxicity (moderate)” value in [1] stood at 0%; in [4], 0. Further, the “Hepatotoxicity (acute)” value in [2] stood at 0%; in data set [5] it was 1. Moreover, the “Hepatotoxicity (time to onset)” value in [3] stood at 2 days. Besides, in [6], the “Hepatotoxicity (cytolytic)” value was determined as 1. Also, the “Hepatotoxicity (choleostasis)” value in data set [7] is given as 0. The “Hepatotoxicity (severe hepatitis)” value in data set [8] amounted to 0. Also, the “Hepatotoxicity (chronic liver disease)” value in [9] was 0. Moreover, the “Hepatotoxicity (cirrhosis)” value in data set [10] is 0. Also, the “Hepatotoxicity (granulomatous hepatitis)” value in data set [11] came to 0. The “Hepatotoxicity (association with vascular disease)” value in data set [12] is recorded as 0. In addition, the “Hepatotoxicity (steatosis)” value in data set [13] came out at 0. Moreover, the “Hepatotoxicity (malignant tumour)” value in data set [14] is recorded as 0. Besides, the “Hepatotoxicity (benign tumour)” value in data set [15] worked out at 0.
